Target: BTK, recombinant human catalytic domain (aa 393-659) (Homo sapiens (Human), UniProt Q06187)
Assay: In vitro BTK kinase activity measured by time-resolved fluorescence resonance energy transfer (trFRET)
Type: biochemical
Details: trFRET, 0.001 mM ATP, biotin-TYR1 peptide substrate; read-out: Btk IC50

BTK, recombinant human catalytic domain (aa 393-659), sequence (Q06187 393-659): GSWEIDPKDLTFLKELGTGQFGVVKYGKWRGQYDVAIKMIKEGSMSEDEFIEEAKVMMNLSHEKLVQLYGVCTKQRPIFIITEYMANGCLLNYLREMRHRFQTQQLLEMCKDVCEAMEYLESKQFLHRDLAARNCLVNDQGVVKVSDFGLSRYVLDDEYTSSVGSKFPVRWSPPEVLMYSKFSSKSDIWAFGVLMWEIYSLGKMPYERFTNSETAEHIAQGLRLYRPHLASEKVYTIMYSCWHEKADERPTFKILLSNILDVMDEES

IC50 [nM] | Compound
< 100 | C=CC(=O)N[C@@H]1CCC[C@H](c2ccc(C(N)=O)c3[nH]ccc23)C1 (relative stereo) [Example 8, 4-(cis-3-Acrylamidocyclohexyl)-1H-indole-7-carboxamide]
100 to 1000 | C=CC(=O)N[C@H]1CCC[C@H](c2ccc(C(N)=O)c3[nH]ccc23)C1 (relative stereo) [Example 9, 4-(trans-3-Acrylamidocyclohexyl)-1H-indole-7-carboxamide]
< 100 | C=CC(=O)N[C@@H]1CC[C@H](c2ccc(C(N)=O)c3[nH]ccc23)C1 (relative stereo) [Example 10, 4-(cis-3-Acrylamidocyclopentyl)-1H-indole-7-carboxamide]
< 100 | C=CC(=O)N[C@H]1CC[C@H](c2ccc(C(N)=O)c3[nH]ccc23)C1 (relative stereo) [Example 11, 4-(trans-3-Acrylamidocyclopentyl)-1H-indole-7-carboxamide]
< 100 | CS(=O)(=O)N1CC=C(c2cc3c(N4CC[C@@H](O)[C@H](NC(=O)c5nccs5)C4)ccc(C(N)=O)c3[nH]2)CC1 (relative stereo) [O.1, N-(trans-1-(7-carbamoyl-2-(1-(methylsulfonyl)-1,2,3,6-tetrahydropyridin-4-yl)-1H-indol-4-yl)-4-hydroxypiperidin-3-yl)thiazole-2-carboxamide]
< 100 | C=CC(=O)N1CC([C@@H](C)c2ccc(C(N)=O)c3[nH]ccc23)C1 [28 (R), (R)-4-(1-(1-acryloylazetidin-3-yl)ethyl)-1H-indole-7-carboxamide]
100 to 1000 | C=CC(=O)N1CC([C@H](C)c2ccc(C(N)=O)c3[nH]ccc23)C1 [28 (S), (S)-4-(1-(1-Acryloylazetidin-3-yl)ethyl)-1H-indole-7-carboxamide]
100 to 1000 | C=CC(=O)N1CCC[C@H](c2ccc(C(N)=O)c3[nH]ccc23)C1 [30 (R), (R)-4-(1-Acryloylpiperidin-3-yl)-1H-indole-7-carboxamide]
< 100 | C=CC(=O)N1CCC[C@@H](c2ccc(C(N)=O)c3[nH]ccc23)C1 [30 (S), (S)-4-(1-acryloylpiperidin-3-yl)-1H-indole-7-carboxamide]
100 to 1000 | C=CC(=O)Nc1cccc(-c2ccc(C(N)=O)c3[nH]c(-c4c(C)noc4C)cc23)c1C [A.1.1]
< 100 | C=CC(=O)Nc1cccc(-c2ccc(C(N)=O)c3[nH]c(-c4ccnn4C4CCCCO4)cc23)c1C (stereo not shown) [A.1.2]
100 to 1000 | C=CC(=O)Nc1cccc(-c2ccc(C(N)=O)c3[nH]c(-c4c(C)n[nH]c4C)cc23)c1C [A.1.3]
< 100 | C=CC(=O)Nc1cccc(-c2ccc(C(N)=O)c3[nH]c(-c4cnn(C(C)C)c4)cc23)c1C [A.1.4]
< 100 | C=CC(=O)Nc1cccc(-c2ccc(C(N)=O)c3[nH]c(-c4cn(C)nc4C)cc23)c1C [A.1.5]
< 100 | C=CC(=O)Nc1cccc(-c2ccc(C(N)=O)c3[nH]c(-c4cnn(CC)c4)cc23)c1C [A.1.6]
< 100 | C=CC(=O)Nc1cccc(-c2ccc(C(N)=O)c3[nH]c(-c4cnn(CC(C)C)c4)cc23)c1C [A.1.7]
< 100 | C=CC(=O)Nc1cccc(-c2ccc(C(N)=O)c3[nH]c(-c4cnn(CCN5CCOCC5)c4)cc23)c1C [A.1.8]
< 100 | C=CC(=O)Nc1cccc(-c2ccc(C(N)=O)c3[nH]c(-c4cncnc4)cc23)c1C [A.1.10]
< 100 | C=CC(=O)Nc1cccc(-c2ccc(C(N)=O)c3[nH]c(-c4ccnn4C)cc23)c1C [A.1.11]
< 100 | C=CC(=O)Nc1cccc(-c2ccc(C(N)=O)c3[nH]c(-c4ccncc4)cc23)c1C [A.1.12]
< 100 | C=CC(=O)Nc1cccc(-c2ccc(C(N)=O)c3[nH]c(-c4ccnc(OC)c4)cc23)c1C [A.1.13]
< 100 | C=CC(=O)Nc1cccc(-c2ccc(C(N)=O)c3[nH]c(-c4cccc(C#N)c4)cc23)c1C [A.1.14]
< 100 | C=CC(=O)Nc1cccc(-c2ccc(C(N)=O)c3[nH]c(-c4cccc(NC(C)=O)c4)cc23)c1C [A.1.15]
< 100 | C=CC(=O)Nc1cccc(-c2ccc(C(N)=O)c3[nH]c(-c4ccc(F)nc4)cc23)c1C [A.1.16]
< 100 | C=CC(=O)Nc1cccc(-c2ccc(C(N)=O)c3[nH]c(-c4cccnc4F)cc23)c1C [A.1.17]

IC50 [nM] | Compound
< 100 | C=CC(=O)Nc1cccc(-c2ccc(C(N)=O)c3[nH]c(-c4cccnc4OC)cc23)c1C [A.1.18]
< 100 | C=CC(=O)Nc1cccc(-c2ccc(C(N)=O)c3[nH]c(-c4cccc(C(=O)OC)c4)cc23)c1C [A.1.19]
< 100 | C=CC(=O)Nc1cccc(-c2ccc(C(N)=O)c3[nH]c(-c4ccc(C(=O)OC)cc4)cc23)c1C [A.1.20]
< 100 | C=CC(=O)Nc1cccc(-c2ccc(C(N)=O)c3[nH]c(-c4ccc5c(c4)CCO5)cc23)c1C [A.1.21]
< 100 | C=CC(=O)Nc1cccc(-c2ccc(C(N)=O)c3[nH]c(-c4cccc(OC)c4)cc23)c1C [A.1.22]
< 100 | C=CC(=O)Nc1cccc(-c2ccc(C(N)=O)c3[nH]c(-c4ccc(OC)cc4)cc23)c1C [A.1.23]
< 100 | C=CC(=O)Nc1cccc(-c2ccc(C(N)=O)c3[nH]c(-c4ccc(C)nc4)cc23)c1C [A.1.24]
< 100 | C=CC(=O)Nc1cccc(-c2ccc(C(N)=O)c3[nH]c(-c4cccc(C(N)=O)c4)cc23)c1C [A.1.25]
< 100 | C=CC(=O)Nc1cccc(-c2ccc(C(N)=O)c3[nH]c(-c4cccc(F)c4)cc23)c1C [A.1.26]
< 100 | C=CC(=O)Nc1cccc(-c2ccc(C(N)=O)c3[nH]c(-c4cccc(N(C)C)c4)cc23)c1C [A.1.27]
100 to 1000 | C=CC(=O)Nc1cccc(-c2ccc(C(N)=O)c3[nH]c(-c4cc(S(=O)(=O)N5CCCC5)ccc4C)cc23)c1C [A.1.28]
< 100 | C=CC(=O)Nc1cccc(-c2ccc(C(N)=O)c3[nH]c(-c4ccccc4F)cc23)c1C [A.1.29]
< 100 | C=CC(=O)Nc1cccc(-c2ccc(C(N)=O)c3[nH]c(-c4ccc(N5CCOCC5)nc4)cc23)c1C [A.1.30]
< 100 | C=CC(=O)Nc1cccc(-c2ccc(C(N)=O)c3[nH]c(-c4cccc(C(=O)N5CCN(C)CC5)c4)cc23)c1C [A.1.31]
< 100 | C=CC(=O)Nc1cccc(-c2ccc(C(N)=O)c3[nH]c(-c4ccc(F)cc4)cc23)c1C [A.1.32]
< 100 | C=CC(=O)Nc1cccc(-c2ccc(C(N)=O)c3[nH]c(-c4ccccc4)cc23)c1C [A.1.33]
< 100 | C=CC(=O)Nc1cccc(-c2ccc(C(N)=O)c3[nH]c(-c4ccc(C(=O)N(C)C)cc4)cc23)c1C [A.1.35]
< 100 | C=CC(=O)Nc1cccc(-c2ccc(C(N)=O)c3[nH]c(-c4cccnc4)cc23)c1C [A.1.36]
< 100 | C=CC(=O)Nc1cccc(-c2ccc(C(N)=O)c3[nH]c(-c4ccc(C(=O)N5CCCC5)cc4)cc23)c1C [A.1.38]
< 100 | C=CC(=O)Nc1cccc(-c2ccc(C(N)=O)c3[nH]c(-c4ccc(C(=O)N5CCN(C)CC5)cc4)cc23)c1C [A.1.39]
< 100 | C=CC(=O)Nc1cccc(-c2ccc(C(N)=O)c3[nH]c(-c4ccc(S(C)(=O)=O)cc4)cc23)c1C [A.1.40]
< 100 | C=CC(=O)Nc1cccc(-c2ccc(C(N)=O)c3[nH]c(-c4ccc(OC)nc4)cc23)c1C [A.1.41]
< 100 | C=CC(=O)Nc1cccc(-c2ccc(C(N)=O)c3[nH]c(-c4ccc(C#N)cc4)cc23)c1C [A.1.42]
< 100 | C=CC(=O)Nc1cccc(-c2ccc(C(N)=O)c3[nH]c(-c4ccccc4OC)cc23)c1C [A.1.43]
